{"source": "patent US12539273B2", "about": "“External nano liniment for gout and preparation method thereof” (priority 2021, dated 2026)", "key": {"[1]": {"conditions": "cited from earlier work; for cardiovascular and cerebrovascular and all-cause mortality: oral administration, statistic average period of 1 year"}, "patients with gout": {"tested_on": "patients with gout", "experiment": "Preliminary human trial of preparation: crystal dissolution of gout crystals", "format": "in vivo", "method": "The prepared nano liniment was applied to some patients with gout on trial. The gout treatment effect was obvious. The local application dosage was far below the dosage of the same oral medicine. The total dosage was safe.\nMethod of application: the nano liniment was applied to the gout parts (most foot joints, some hand joints or other parts) twice a day (every morning and evening), 1 ml of the corresponding nano liniment was applied every time, the gout (crystal) parts were photographed at different points in time before and after the nano liniment was applied, and the blood uric acid concentration (i.e. the uric acid value under fasting) of some patients with obvious crystal dissolution and lump elimination was also determined as a reference."}}, "note": "Read-outs that look alike come from different tables or passages of the source."}
{"smiles": "N#Cc1cc(-c2n[nH]c(-c3ccncc3)n2)ccn1", "note": "[Topiroxostat]", "values": [{"measurement": "Side effects", "setting": "[1]; oral tablet, marketed gout medicine", "result": "effect on the liver and bile."}]}
{"smiles": "Oc1ncnc2[nH]ncc12", "note": "[Allopurinol]", "values": [{"measurement": "cardiovascular and cerebrovascular and all-cause mortality", "setting": "[1]", "result": "mortality reaches up to 3.3%)."}, {"measurement": "cardiovascular and cerebrovascular and all-cause mortality", "setting": "[1]; listed as allopurinol", "result": 3.3, "unit": "%"}]}
{"smiles": "Cc1nc(-c2ccc(OCC(C)C)c(C#N)c2)sc1C(=O)O", "note": "[Febuxostat]", "values": [{"measurement": "cardiovascular and cerebrovascular and all-cause mortality", "setting": "[1]", "result": "reaches up to 4.1%)."}, {"measurement": "cardiovascular and cerebrovascular and all-cause mortality", "setting": "[1]; listed as febuxostat", "result": 4.1, "unit": "%"}]}
{"smiles": "OCc1ccc(O[C@@H]2O[C@H](CO)[C@@H](O)[C@H](O)[C@H]2O)cc1", "note": "[4-hydroxymethyl phenyl-beta-D-glucopyranoside]", "values": [{"measurement": "analgesic effect", "setting": "patients with gout; finding of the study, gout", "result": "good analgesic effect"}, {"measurement": "gout treatment effect", "setting": "patients with gout; patients with gout on trial", "result": "good treatment effect on gout"}]}
